Experimental data as given in US9708323B2, “Tricyclic compounds as alpha-7 nicotinic acetylcholine receptor ligands” (BRISTOL-MYERS SQUIBB COMPANY, priority 2014, dated 2017).

biological target: T1, α-7 nicotinic ACh receptor ion channel expressed in HEK 293 cells (Rattus norvegicus, UniProt Q05941); assay: Ca2+-sensitive, fluorescence-based assay for α-7 nicotinic acetylcholine receptor channel function in mammalian cells (FLIPR); format: cell-based; details: Table 1, agonist Ca2+ flux, read-out: FLIPR α7 (EC50)
T1 construct: expressed in transfected cells
Description: II) A Ca^2+-Sensitive, Fluorescence-Based Assay α-7 for Nicotinic Acetylcholine Receptor Channel Function in Mammalian Cells (“FLIPR”). Summary:
Lead compounds are evaluated for agonist activity at α-7, α3β4, α4αβ2, and α1β1δ1ε sub-types of nicotinic ACh receptor ion channels expressed in mammalian HEK 293 cells. Agonist potency and efficacy values are determined from kinetic fluorescence Ca^2+ influx measurements made using a 384 well FLIPR (Fluorescence Image Plate Reader). The utility of fluorescent indicators for measuring changes in intracellular divalent cation concentrations, particularly Ca^2+, for drug discovery endeavors is well documented (Rudiger, R., et al., Nature Reviews, 2003, 4:579-586; Gonzalez J. E., et al., Receptors and Channels, 2002, 8:283-295). In this assay, channel expressing HEK cell lines seeded in 384 well assay plates are loaded with a membrane permeant fluorescent Ca^2+ indicator dye, whose 510 nm green emission signal increases in response to elevation of intracellular Ca^2+ concentration. The basal fluorescence from the cells is monitored in real time, followed by the acute addition of test compounds. If the compound is an agonist at any of the non-selective cation channels, the latter open and allow the movement of extracellular Ca^2+ ions into the cell cytoplasm, where they bind to the Ca^2+ indicator dye, and produce an increase in fluorescence output signal, which is detected by a cooled CCD imaging camera.
Reagents: The acetomethoxy (AM) ester of the Ca^2+ indicator dye Fluo-4 was obtained from InVitrogen, (Carlsbad, Calif.). Acetylcholine and all buffer constituents were purchased from Sigma Chemical Company, St. Louis, Mo. G418 and Minimal Essential Medium were purchased from InVitrogen Life Technologies, Carlsbad, Calif. Fetal bovine serum was purchased from (InVitrogen, Carlsbad, Calif.).
HEK-293 cells were grown in Minimal Essential Medium containing 10% (v/v) fetal bovine serum at 37° C. in a 5% CO2 incubator. HEK-293 cells stably expressing the ion channels were grown in the same medium with the addition of 500 μg/ml G418.
HEK-293 cells expressing the ion channels of interest were plated in 384 well, black-walled, clear-bottomed, poly-D-lysine coated plates at a density of ˜20,000 cells/well in 20 μl of Minimal Essential Medium containing 10% (v/v) fetal bovine serum and incubated for 2 days at 29° C. in a 5% CO2 incubator. Prior to assay, cells were loaded with the Fluo-4 AM ester. Cell loading was accomplished by removing the culture medium and replacing it with 30 μl/well of the AM ester of the dye (5 μM) mixed with Hanks Balanced Salt Solution (#14175-095) containing 20 mM HEPES, 2.5 mM probenecid, 0.5 mM CaCl2, 1 mM MgCl2 and 10 μM atropine. Dye loading was allowed to proceed for 90 minutes at room temperature at which time the dye loading solution was removed and replaced with 40 μl/well of Hanks buffer. Cells loaded with dye were loaded onto a FLIPR384 (Molecular Devices, Sunnyvale, Calif.). Fluo-4 dye was excited using the 488 nm line of an argon laser. Emission was filtered using a 540+/−30 nm bandpass filter. For evaluation of the effects of test compounds using the Ca^2+ flux assay, compounds to be tested were provided in assay ready plates. For nicotinic receptor ion channel expressing cells, the assay was initiated by the addition of 20 μl/well of Hanks buffer containing test compounds. For all assays, data were collected at 1 Hz for 10 seconds (baseline), at which time the compound containing stimulus buffers are added, and further measurements collected at 0.33 Hz for 3 min.
The statistical robustness of the nicotinic receptor Ca^2+ flux assays is determined from blanks and totals wells. The totals wells define maximal channel activation for each compound test plate (Maximum efficacious dose of acetylcholine), and the blanks wells which contain matched DMSO only, define zero channel activation. […]

T1 sequence (Q05941 23-502): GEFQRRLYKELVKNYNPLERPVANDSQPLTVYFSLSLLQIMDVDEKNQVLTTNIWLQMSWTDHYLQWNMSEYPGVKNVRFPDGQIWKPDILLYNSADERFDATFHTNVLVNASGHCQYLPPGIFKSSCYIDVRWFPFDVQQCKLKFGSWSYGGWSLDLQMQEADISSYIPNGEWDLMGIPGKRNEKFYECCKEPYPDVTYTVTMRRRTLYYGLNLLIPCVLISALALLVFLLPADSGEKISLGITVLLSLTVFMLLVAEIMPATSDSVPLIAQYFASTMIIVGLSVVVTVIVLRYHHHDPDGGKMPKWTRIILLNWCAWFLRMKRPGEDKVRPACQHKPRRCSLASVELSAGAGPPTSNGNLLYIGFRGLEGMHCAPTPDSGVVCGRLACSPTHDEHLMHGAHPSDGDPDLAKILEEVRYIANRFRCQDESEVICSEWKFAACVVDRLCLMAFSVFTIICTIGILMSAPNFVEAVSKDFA

SMILES	EC50
O=C(c1cc2cccc(Cl)c2s1)N1CC2CN3CCC2C1C3 (stereo not shown) [Example 1, (7-chlorobenzo[b]thiophen-2-yl)(hexahydro-3,6-methanopyrrolo[2,3-c]pyridin-1(2H)-yl)methanone]	1.7 µM
O=C(c1n[nH]c2ccccc12)N1CC2CN3CCC2C1C3 (stereo not shown) [Example 2, (hexahydro-3,6-methanopyrrolo[2,3-c]pyridin-1(2H)-yl)(1H-indazol-3-yl)methanone]	0.25 µM
O=C(c1ccccc1)N1CC2CN3CCC2C1C3 (stereo not shown) [Example 3, (hexahydro-3,6-methanopyrrolo[2,3-c]pyridin-1(2H)-yl)(phenyl)methanone]	> 100 µM
O=C(c1ccc(Br)o1)N1CC2CN3CCC2C1C3 (stereo not shown) [Example 7]	> 100 µM
O=C(c1sccc1Cl)N1CC2CN3CCC2C1C3 (stereo not shown) [Example 26]	> 100 µM
O=C(c1cccc(Cl)n1)N1CC2CN3CCC2C1C3 (stereo not shown) [Example 35]	> 100 µM
O=C(c1cc(Cl)ccn1)N1CC2CN3CCC2C1C3 (stereo not shown) [Example 37]	> 100 µM
O=C(c1cc(Br)c(Br)s1)N1CC2CN3CCC2C1C3 (stereo not shown) [Example 51]	> 100 µM
O=C(c1sc2cc(F)ccc2c1Cl)N1CC2CN3CCC2C1C3 (stereo not shown) [Example 52]	> 100 µM
Cn1nc2ccccc2c1C(=O)N1CC2CN3CCC2C1C3 (stereo not shown) [Example 54]	> 100 µM
O=C(c1c[nH]c2ncccc12)N1CC2CN3CCC2C1C3 (stereo not shown) [Example 55]	> 100 µM
O=C(c1cc(Br)no1)N1CC2CN3CCC2C1C3 (stereo not shown) [Example 56]	> 100 µM
O=C(c1cc(Br)c(Br)o1)N1CC2CN3CCC2C1C3 (stereo not shown) [Example 57]	> 100 µM
CC(C)c1cc(C(=O)N2CC3CN4CCC3C2C4)on1 (stereo not shown) [Example 58]	> 100 µM
O=C(c1cc(Br)cs1)N1CC2CN3CCC2C1C3 (stereo not shown) [Example 59]	> 100 µM
COc1cc(Br)cc2cc(C(=O)N3CC4CN5CCC4C3C5)oc12 (stereo not shown) [Example 60]	> 100 µM
O=C(c1cc(-c2ccccc2)no1)N1CC2CN3CCC2C1C3 (stereo not shown) [Example 62]	> 100 µM
Cc1cc(C(=O)N2CC3CN4CCC3C2C4)on1 (stereo not shown) [Example 64]	> 100 µM
Cc1c(Br)csc1C(=O)N1CC2CN3CCC2C1C3 (stereo not shown) [Example 65]	> 100 µM

SMILES	EC50
O=C(c1cc(-c2ccccc2)cs1)N1CC2CN3CCC2C1C3 (stereo not shown) [Example 66]	> 100 µM
O=C(c1sc2ccccc2c1Cl)N1CC2CN3CCC2C1C3 (stereo not shown) [Example 67]	> 100 µM
Cc1ccc2c(Cl)c(C(=O)N3CC4CN5CCC4C3C5)sc2c1 (stereo not shown) [Example 68]	> 100 µM
O=C(c1cc(-c2ccc(Br)cc2)cs1)N1CC2CN3CCC2C1C3 (stereo not shown) [Example 69]	> 100 µM
Cc1cc(C(=O)N2CC3CN4CCC3C2C4)oc1C (stereo not shown) [Example 70]	> 100 µM
O=C(c1cc2ccc(Cl)cc2s1)N1CC2CN3CCC2C1C3 (stereo not shown) [Example 71]	> 100 µM
O=C(c1cc2c(C(F)(F)F)cccc2s1)N1CC2CN3CCC2C1C3 (stereo not shown) [Example 72]	> 100 µM
O=C(c1cc2nccnc2s1)N1CC2CN3CCC2C1C3 (stereo not shown) [Example 75]	> 100 µM
O=C(c1snc(Cl)c1Cl)N1CC2CN3CCC2C1C3 (stereo not shown) [Example 76]	> 100 µM
O=C(c1ccns1)N1CC2CN3CCC2C1C3 (stereo not shown) [Example 78]	> 100 µM
O=C(c1sc2cccc(Cl)c2c1Cl)N1CC2CN3CCC2C1C3 (stereo not shown) [Example 79]	> 100 µM
O=C(c1c[nH]c2ncc(Br)cc12)N1CC2CN3CCC2C1C3 (stereo not shown) [Example 80]	38 µM
O=C(c1noc2ccccc12)N1CC2CN3CCC2C1C3 (stereo not shown) [Example 81]	8 µM
O=C(c1onc2ccccc12)N1CC2CN3CCC2C1C3 (stereo not shown) [Example 82]	> 100 µM
CSc1sc(C(=O)N2CC3CN4CCC3C2C4)c2c1C=CCC2 (stereo not shown) [Example 83]	> 100 µM
O=C(c1cc(-c2ccc(Cl)cc2)cs1)N1CC2CN3CCC2C1C3 (stereo not shown) [Example 84]	> 100 µM
O=C(c1sc2cccc(F)c2c1Cl)N1CC2CN3CCC2C1C3 (stereo not shown) [Example 85]	> 100 µM
Cc1c(C(=O)N2CC3CN4CCC3C2C4)sc2ccc(Cl)cc12 (stereo not shown) [Example 86]	> 100 µM

same assay, conditions: Table 2, agonist Ca2+ flux, read-out: FLIPR α7 (EC50)

SMILES	EC50
O=C(c1n[nH]c2ccccc12)N1C[C@H]2C[N@]3CC[C@H]2[C@H]1C3 [Example 88, ((3R,3aR,6S,7aS)-hexahydro-3,6-methanopyrrolo[2,3-c]pyridin-1(2H)-yl)(1H-indazol-3-yl)methanone]	0.39 µM
O=C(c1cc2ccccc2s1)N1C[C@H]2C[N@]3CC[C@H]2[C@H]1C3 [Example 89, benzo[b]thiophen-2-yl((3R,3aR,6S,7aS)-hexahydro-3,6-methanopyrrolo[2,3-c]pyridin-1(2H)-yl)methanone]	18 µM
Cn1nc(C(=O)N2C[C@H]3C[N@]4CC[C@H]3[C@H]2C4)c2ccccc21 [Example 90, ((3R,3aR,6S,7aS)-hexahydro-3,6-methanopyrrolo[2,3-c]pyridin-1(2H)-yl) (1-methyl-1H-indazol-3-yl)methanone]	> 100 µM
Cn1cc(C(=O)N2C[C@H]3C[N@]4CC[C@H]3[C@H]2C4)c2ccccc21 [Example 91, ((3R,3aR,6S,7aS)-hexahydro-3,6-methanopyrrolo[2,3-c]pyridin-1(2H)-yl)(1-methyl-1H-indol-3-yl)methanone]	> 100 µM
O=C(c1n[nH]c2ccc(Cl)cc12)N1C[C@H]2C[N@]3CC[C@H]2[C@H]1C3 [Example 92, ((3R,3aR,6S,7aS)-hexahydro-3,6-methanopyrrolo[2,3-c]pyridin-1(2H)-yl)(5-chloro-1H-indazol-3-yl)methanone]	0.7 µM
COc1ccc2c(C(=O)N3C[C@H]4C[N@]5CC[C@H]4[C@H]3C5)n[nH]c2c1 [Example 93, ((3R,3aR,6S,7aS)-hexahydro-3,6-methanopyrrolo[2,3-c]pyridin-1(2H)-yl)(6-methoxy-1H-indazol-3-yl)methanone]	2.2 µM
O=C(c1cc2c(Cl)cccc2s1)N1C[C@H]2C[N@]3CC[C@H]2[C@H]1C3 [Example 94, 4-chlorobenzo[b]thiophen-2-yl((3R,3aR,6S,7aS)-hexahydro-3,6-methanopyrrolo[2,3-c]pyridin-1(2H)-yl)methanone]	> 100 µM
COc1cccc2[nH]nc(C(=O)N3C[C@H]4C[N@]5CC[C@H]4[C@H]3C5)c12 [Example 95, ((3R,3aR,6S,7aS)-hexahydro-3,6-methanopyrrolo[2,3-c]pyridin-1(2H)-yl)(4-methoxy-1H-indazol-3-yl)methanone]	> 100 µM
O=C(c1cc2cccc(Cl)c2s1)N1C[C@H]2C[N@]3CC[C@H]2[C@H]1C3 [Example 96, 7-chlorobenzo[b]thiophen-2-yl((3R,3aR,6S,7aS)-hexahydro-3,6-methanopyrrolo[2,3-c]pyridin-1(2H)-yl)methanone]	> 100 µM
O=C(c1nsc2ccccc12)N1C[C@H]2C[N@]3CC[C@H]2[C@H]1C3 [Example 97, benzo[d]isothiazol-3-yl((3R,3aR,6S,7aS)-hexahydro-3,6-methanopyrrolo[2,3-c]pyridin-1(2H)-yl)methanone]	30 µM
O=C(c1ccc(Cl)cc1)N1C[C@H]2C[N@]3CC[C@H]2[C@H]1C3 [Example 98, (4-chlorophenyl) ((3R,3aR,6S,7aS)-hexahydro-3,6-methanopyrrolo[2,3-c]pyridin-1(2H)-yl)methanone]	> 100 µM

same assay, conditions: Table 3, agonist Ca2+ flux, read-out: FLIPR α7 (EC50)

SMILES	EC50
O=C(c1n[nH]c2ccccc12)N1C[C@@H]2C[N@@]3CC[C@@H]2[C@@H]1C3 [Example 87, ((3S,3aS,6R,7aR)-hexahydro-3,6-methanopyrrolo[2,3-c]pyridin-1(2H)-yl)(1H-indazol-3-yl)methanone]	0.37 µM
